Experimental data from ChEMBL document CHEMBL3045301, “Pharmacophore modeling of some novel indole -diketo acid and coumarin-based derivatives as HIV integrase inhibitors” (Med Chem Res, 2012).

Biological target: Human immunodeficiency virus type 1 integrase (Human immunodeficiency virus 1, UniProt Q7ZJM1)
Assay: Inhibition of Human immunodeficiency virus 1 integrase

Human immunodeficiency virus type 1 integrase, sequence (Q7ZJM1 whole entry): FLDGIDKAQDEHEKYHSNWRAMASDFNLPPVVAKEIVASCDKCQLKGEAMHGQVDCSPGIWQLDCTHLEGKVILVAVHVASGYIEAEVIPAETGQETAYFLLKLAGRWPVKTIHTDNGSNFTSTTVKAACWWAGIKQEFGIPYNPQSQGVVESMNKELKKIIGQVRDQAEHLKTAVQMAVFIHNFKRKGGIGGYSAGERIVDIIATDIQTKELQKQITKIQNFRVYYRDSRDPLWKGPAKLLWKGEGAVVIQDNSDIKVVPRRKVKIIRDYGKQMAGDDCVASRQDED

Structure (SMILES)	IC50 [µM]
O=c1oc2cc(O)ccc2c(O)c1Cc1c(O)c2ccc(O)cc2oc1=O	44.9
O=c1oc2cc(O)ccc2c(O)c1C(c1ccccc1)c1c(O)c2ccc(O)cc2oc1=O	22.2
O=c1oc2cc(O)ccc2c(O)c1C(c1ccc2c(c1)CC=CC2)c1c(O)c2ccc(O)cc2oc1=O	3.5
CCn1c(C(=O)/C=C(\O)C(=O)O)cc2cc3c(cc21)OCO3	5
O=c1oc2cc(O)ccc2c(O)c1C(c1cccnc1)c1c(O)c2ccc(O)cc2oc1=O	25
O=c1oc2cc(O)ccc2c(O)c1C(c1ccc(CCc2ccccc2)cc1)c1c(O)c2ccc(O)cc2oc1=O	1.8
O=c1oc2ccccc2c(O)c1C(c1cccc(C(c2c(O)c3ccccc3oc2=O)c2c(O)c3ccccc3oc2=O)c1)c1c(O)c2ccccc2oc1=O	1.2
O=c1oc2ccccc2c(O)c1-c1ccccc1-c1c(O)c2ccccc2oc1=O	20.4
Cn1c(C(=O)/C=C(\O)C(=O)O)cc2cc3c(cc21)OCO3	2
O=c1oc2ccccc2c(O)c1C(c1ccc(O)cc1)c1c(O)c2ccccc2oc1=O	74.1
O=C(O)/C(O)=C/C(=O)c1cc2ccccc2n1Cc1ccccc1	1
CCn1cc(C(=O)/C=C(\O)C(=O)O)c2ccccc21	3
O=C(O)/C(O)=C/C(=O)c1cc2cc3c(cc2n1Cc1ccccc1)OCO3	2
O=c1oc2ccccc2c(O)c1C(c1ccccc1)c1c(O)c2ccccc2oc1=O	38
O=c1oc2ccccc2c(O)c1C(c1ccco1)c1c(O)c2ccccc2oc1=O	132
Cn1cc(C(=O)/C=C(\O)C(=O)O)c2ccccc21	2
O=c1oc2ccccc2c(O)c1C(c1ccc2c(c1)CC=CC2)c1c(O)c2ccccc2oc1=O	16
O=c1oc2ccccc2c(O)c1C(c1cccs1)c1c(O)c2ccccc2oc1=O	148
Cn1cc(C(=O)/C=C(\O)C(=O)O)c2cc3c(cc21)OCO3	3
O=c1oc2ccccc2c(O)c1Cc1ccc(Cc2c(O)c3ccccc3oc2=O)cc1	69.2
O=c1oc2ccccc2c(O)c1C(c1ccc(-c2ccccc2)cc1)c1c(O)c2ccccc2oc1=O	13
O=c1oc2cc(O)ccc2c(O)c1C(c1ccc(C(c2c(O)c3ccc(O)cc3oc2=O)c2c(O)c3ccc(O)cc3oc2=O)cc1)c1c(O)c2ccc(O)cc2oc1=O	3.03
O=C(O)/C(O)=C/C(=O)c1cn(Cc2ccccc2)c2ccccc12	1
CN(C)c1ccc(C(c2c(O)c3ccccc3oc2=O)c2c(O)c3ccccc3oc2=O)cc1	49
CCn1cc(C(=O)/C=C(\O)C(=O)O)c2cc3c(cc21)OCO3	3
CCn1c(C(=O)/C=C(\O)C(=O)O)cc2ccccc21	1.6
O=c1oc2ccccc2c(O)c1-c1cccc(-c2c(O)c3ccccc3oc2=O)c1	11
O=c1oc2ccccc2c(O)c1C(c1ccc(OCc2ccccc2)c(OCc2ccccc2)c1)c1c(O)c2ccccc2oc1=O	12
Cn1c(C(=O)/C=C(\O)C(=O)O)cc2ccccc21	6
O=c1oc2ccccc2c(O)c1C(c1cnc2c(c1)CC=CC2)c1c(O)c2ccccc2oc1=O	23
